Experimental data taken from patent US20160144021A1, “Vaccine Composition And Method Of Use” (MEDIMMUNE, LLC, priority 2013, published 2016).

Experiments:
Assay type in all cases: in vivo
[1] = test system: RSV-F-derived MHC I restricted peptide; assay: Granzyme B ELISPOT of splenocytes, naive BALB/c mice; conditions: splenocytes 4 days post challenge
From the text: FIGS. 1A-F are graphs showing immune responses to adjuvanted RSV sF vaccines in naïve BALB/c mice. Mice (N=7 per group) were immunized at days 0 and 14 with the indicated vaccines and challenged with 6 log10 PFU of RSV at day 28. Representative data shown from 1 of 2 experiments run with all groups. (A) Lung Viral Titers. Residual virus in the lungs of animals 4 days post challenge was quantified by plaque assay. Individual results are presented in log10, along with a bar representing the group geometric mean. Individuals with undetectable titers were scored at the assay limit of detection (LOD), ˜1.4 log10. (B) Serum RSV-GFP Neutralizing Titers. […] Individuals with undetectable titers were scored at the assay limit of detection (LOD) of 3.3 log2, indicated by a dashed line. […] Shown are the specific IFNγ, IL-5, IL-13, and IL-17 responses to an immunodominant MHC II restricted RSV-F peptide pool calculated by subtracting media control values from test values in multiplexed cytokine analysis. […] Day 28 sera (n=7 per group) were evaluated for F-specific IgG1 and IgG2a isotypes by endpoint titer ELISA. […]
Th1-type responses to a vaccine such as those seen with RSV sF+GLA-SE may support the development of strong CD8 T cell responses. […] To evaluate the cytolytic potential of these responding cells, we evaluated F-specific Granzyme B secretion by ELISPOT.

RSV A2 [2] = assay: RSV A2-GFP microneutralization of sera, naive Sprague Dawley rats; conditions: Day 22, 22 days post Dose 1; RSV sF 10 and 100 μg groups
Description: In a subsequent study, the immunogenicity and protection following a prime-boost regimen of RSV-SF was evaluated. 40 naive female Sprague Dawley rats were divided into designated vaccine cohorts of 5-6 animals per cohort. Briefly, test groups were given RSV sF (10 μg or 100 μg per animal) without adjuvant or RSV sF (10 μg or 100 μg per animal) with GLA-SE (2.5 μg in 2% SE). Negative control groups were dosed with placebo (PBS buffer) or adjuvant GLA-SE (2.5 μg/2%) without RSV sF. […] Groups 1-6 were inoculated IM with 500 μL of designated vaccine article on Day 0 and Day 22, while Group 7 was inoculated IN with 200 μL of RSV A2 virus on day 0 only. […] Rats were euthanized at 4 days post challenge on Day 46, the day of peak viral replication determined from Study 1. Lungs (excluding 1 lobe which was formalin-fixed) and noses were homogenized and quantified for viral titers.
Serological responses to vaccination were evaluated at 6 hours post immunization, D22, and D42 for all animals and at Day 14 for a subset of 3 animals per group. […] Serum obtained 6 hours post-immunization was evaluated for cytokine titers by multiplexed ELISA. Serum from Days 14, 22, and 42 were measured for total anti-F IgG ELISA endpoint dilution titers. Day 42 serum was evaluated for the specific contribution of IgG1, IgG2a, and IgG2b anti-F responses by ELISA endpoint dilution titers. […]

RSV A2 [3] = assay: GFP-tagged RSV A2 micro-neutralization of sera, naive BALB/c mice; conditions: day 28, prior to challenge, 0.3 μg RSV sF days 0 and 14
RSV A2 [4] = assay: Serum RSV neutralizing titers, naive cotton rats; conditions: day 42, naive cotton rats
Description: RSV neutralizing antibody titers in heat-inactivated mouse sera at indicated timepoints were measured using a GFP-tagged RSV A2 micro-neutralization assay as previously described (Bernstein D I, et al. (2012) Phase 1 study of the safety and immunogenicity of a live, attenuated respiratory syncytial virus and parainfluenza virus type 3 vaccine in seronegative children. Pediatr Infect Dis J 31: 109-114). Briefly, confluent Vero cell monolayers were infected with 500 PFU of virus alone or virus pre-mixed with serially diluted serum samples, then incubated at 33° C. and 5% CO2 for 22 hrs. Plates were washed of free virus and GFP fluorescent viral foci were enumerated using the IsoCyte image scanner (Blueshift, Sunnyvale, Calif.).
Cotton rats are a well established model for RSV studies and are often used in the preclinical evaluation of potential RSV vaccine candidates. To confirm the immune profile of GLA-SE adjuvanted RSV sF vaccine in a second RSV challenge model, individual cotton rats were administered the same RSV sF subunit vaccines at similar doses used for mice. RSV sF at 0.3 μg without adjuvant or adjuvanted with GLA, SE, GLA-SE, or alum was given intramuscularly at days 0 and 22.

RSV A2 [5] = assay: Lung viral titers by plaque assay after RSV challenge, naive BALB/c mice

## RSV sF: RSV soluble F protein, amino acids 1-524 of the RSV A2 F sequence lacking the transmembrane domain, given without adjuvant
[1]
  F-specific Granzyme B ELISPOT responses (mean): 18
RSV A2 [2]
  serum neutralizing titers (log2 GMT IC50): not significantly different from placebo
RSV A2 [3]
  serum RSV neutralizing titers: 4.1 log2
RSV A2 [4]
  RSV neutralizing titers (mean): 4.3 log2
RSV A2 [5]; 4 days post challenge
  animals having detectable lung viral titers: 4/7
  lung protection (full = 100-fold reduction vs PBS): partial lung protection
RSV A2 [5]; naive BALB/c, IM days 0 and 14, 0.3 μg RSV sF, challenge day 28, 4 days post challenge
  detectable lung viral titers (individual animals): 2.3-3.0 log10 pfu/gram
